Molecules are shown by their SMILES. The source made the active and inactive calls. The rule behind the calls is not given here.

Assay [1] deals with T1, Dopamine receptor (Homo sapiens) (UniProt P14416+P35462+P21918+P21917+P21728). Kind of assay: […] inhibitory activity against dopamine receptor in isolated cat atria; inactive. The note with it: Felis catus; target entry is the homologue from another species.
Assay [2] deals with Felis catus. Kind of assay: Compound tested in vitro for sympathetic neuronal activity in cat atria […]; no inhibition with concentrations uM. Type of assay: functional. The note with it: Sympathetic neuron.
Assay [3] relates to Felis catus. Kind of assay: Compound tested in vivo for sympathetic neuronal activity in cat cardioaccelerator nerve after iv administration. Format: functional. The note with it: Sympathetic neuron.
Assay [4] relates to Felis catus. Kind of assay: Compound tested in vitro for sympathetic neuronal activity in cat atria […]. Format: functional. The note with it: Sympathetic neuron, read-out: ED50 (the source's name).
Assay [5] deals with T1, Dopamine receptor (Homo sapiens). Kind of assay: […] inhibitory activity against dopamine receptor in isolated cat atria; active. The note with it: Felis catus; target entry is the homologue from another species.
Assay [6] has as its system Felis catus. Kind of assay: Compound tested in vivo for sympathetic neuronal activity in cat cardioaccelerator nerve after intraduodenal administration. Type of assay: functional. The note with it: Sympathetic neuron.

By ED50 is commonly meant the dose at which the effect has come halfway, by size or by number of responders. Turning to `CCCN(CCC)CCc1cccc2[nH]ccc12`, the result in assay [1] was inactive. The ED50 entry with Felis catus [2] is “inactive”. Besides, the ED50 in the assay on Felis catus [3] worked out at 0.22 µmol/kg.

`CCCN(CCC)CCc1cc(O)cc2[nH]ccc12`: the EC50 with Felis catus [4] was determined as 0.027 µM. For the same molecule, in assay [5], the outcome was Active. In addition, the figures for the ED50 in the assay with Felis catus [6] and in the assay with Felis catus [3] were 0.047 µmol/kg and 0.019 µmol/kg, respectively.

In turn, `CN1C[C@H](CC#N)C[C@@H]2c3cccc4[nH]c(Cl)c(c34)C[C@H]21` [LERGOTRILE] yielded an ED50 in the assay on Felis catus [3] of 0.27 µmol/kg.

These data come from ChEMBL document CHEMBL1122759, “6-Hydroxy-4-[2-(di-n-propylamino)ethyl]indole: synthesis and dopaminergic actions” (1984).
